Where two headings read alike, the source gives them in different places.
Legend:
[1] = parameters: method as in PMID 12236477; settings: metabolites of omeprazole; cited from earlier work
[2] = Pharmacokinetics of levosulpiride 50 mg alone and co-administered with omeprazole 40 mg in healthy human volunteers (Phase-1); assay type: in vivo; settings: for AUC(0-inf) / AUC(0-t) / Cmax / Tmax / half-life: human, plasma, oral; for CL/F: healthy human volunteers (n = 20), mean ± SD
Experimental: (§1) The developed method was applied for evaluation of pharmacokinetics drug-drug interaction between LSP and OMP in healthy human volunteers (n = 20). Both the drugs were administered to the healthy volunteers, their blood samples were collected at specified time points and analyzed for the drug content, using the developed method. Written consent form was signed by all the volunteers and purpose of the study was explained to them. They were physically examined and medical history was recorded. Age of the volunteers was 20–28 years, with mean body mass index (BMI) of […]. Complete blood count, creatinine clearance, and liver function tests of all the healthy human volunteers were performed. All the volunteers were non-smokers and had no history of addiction. They were instructed not to take any medicines for two weeks before the study.
(§2) The study was conducted according to the “World Medical Association Declaration of Helsinki-Ethical principles of medical research involving human subjects” and its amendments. This study was approved by the ethical committee, Department of Pharmacy, University of Swabi, KP, Pakistan (Application number F.NO.UOS/2022/Pharm.02). It was an open-label, randomized, crossover, pharmacokinetic interaction study. The volunteers were divided into two groups of same size (n = 10) and the trial was conducted in two phases and two sequences, as follows;
Phase-1: First phase of the study consisted of two cycles with a wash out period of 14 days. During first phase of the study;
• Group-I: OMP 40 mg was administered twice a day for 6 days, and on the 7th day a single dose of LSP 50 mg was administered • Group-II: LSP 50 mg was administered alone as a single dose
Blood samples (3 mL) were collected at 0, 0.25, 0.5, 1, 2, 3, 4, 6, 8, 12, 24 and 36 hours. After 14 days washout period;
• Group-I: LSP 50 mg was administered alone • Group-II: OMP 40 mg, was administered twice a day for 6 days, on the 7th day LSP 50 mg was administered
(§3) The pharmacokinetic parameters were determined using non-compartmental analysis using PK-Summit (version 2.0.2). The plasma concentration of the drug (ng/mL) versus time (hour) profile was constructed for both drugs when administered alone and in combination with each another. The pharmacokinetic parameters like peak plasma concentration (Cmax), time to reach peak plasma concentration (Tmax), area under the concentration-time curve from zero time to time-t (AUC0-t) i.e. AUC0-36 for LSP and AUC0-12 for OMP, area under the concentration-time curve from zero time to infinity (AUC0-∞), elimination half-life (t1/2) and clearance (CL) were determined.
(§4) All the analysis was performed as per ICH guidelines using mean, standard deviation, and relative standard deviation. In the pharmacokinetic studies, the parameter values were compared using a t-test. The P-value (t-test) was calculated using the IBM SPPS statistics version 20. A p < 0.05 (95% confidence interval) was considered to be significant.

[3] = Stability of spiked human plasma samples at LQC and HQC at different temperatures; assay type: in vitro ADME; settings: plasma sample
Experimental: For preparation of plasma samples, blood was collected from human volunteer and centrifuged to separate the cellular components. Plasma was de-proteinated with acetonitrile (two times volume of plasma) and was used for spiking the analytes. A liquid-liquid extraction method, reported by Jin et al., [18], with slight modification was used for extraction of LSP and OMP. Known amount of LSP, OMP and IS were added to plasma (1 mL), and vortexed for 30 sec. 4 ml of extraction solvent (mixture of ethyl acetate and dichloromethane in 4:1 by volume) was added, vortexed for 2 min and centrifuged at 3000 × g for 10 min. The supernatant (organic) layer was separated and dried under a gentle stream of nitrogen gas. The dried residue was reconstituted with 0.2 mL of mobile phase and an aliquot (20 μL) was injected into the HPLC system. Blank and zero samples were also treated in the same manner.
The stability of the samples was also evaluated at the level of LQC and HQC of both the analytes. The LQC were 10 and 30 ng/mL while the HQC were 120 and 1200 ng/mL for LSP and OMP, respectively. […] The sample stored at –20 °C involved freeze-thawed cycles at a gap of 12 hours between the two-consecutive freeze-thawed cycles.
The stability of the samples was evaluated for short term and relatively long term (one month). […] The % recovery was calculated by comparing the % recovery (concentration recovered) with freshly prepared spiked samples.

[4] = cited from earlier work
[5] = Pharmacokinetics of omeprazole 40 mg alone and co-administered with levosulpiride 50 mg in healthy human volunteers (Phase-2); assay type: in vivo
Experimental: as §1, §2
Phase-2 of the study was started after one month of the completion of Phase-1, as follows;
• Group-I: LSP 50 mg was given for 6 days twice a day and on the 7th day single dose of OMP 40 mg was administered • Group-II: OMP 40 mg was administered alone.
The blood was sampled at 0, 0.25, 0.5, 1, 2, 3, 4, 6, 8, and 12 hours.
After 14 days washout period, the pattern of drug administration was reversed as follows;
• Group-I: OMP 40 mg was administered alone. • Group-II: LSP 50 mg was given for 6 days twice a day and on the 7th day single dose of OMP 40 mg was administered
as §3, §4

[6] = levosulpiride with omeprazole versus alone, not significant
[7] = plasma, oral, omeprazole 40 mg alone, healthy human volunteers (n = 20), mean ± SD

Compound: COc1ccc2nc([S+]([O-])Cc3ncc(CO)c(OC)c3C)[nH]c2c1 (stereo not shown) [5-hydroxy omeprazole]
- pharmacological activity [1]: pharmacologically inactive

Compound: CCN1CCC[C@H]1CNC(=O)c1cc(S(N)(=O)=O)ccc1OC [Levosulpiride]
- AUC(0-inf) [2]: 2210 ± 577 ng·h/mL
- AUC(0-t) [2]: 1770 ± 482 ng·h/mL
- Cmax [2]: 118 ± 26.3 ng/mL
- Tmax [2]: 3.71 ± 0.75 h
- half-life [2]: 12.7 ± 4.76 h
- AUC(0-inf) ([2]; 50 mg): 1870 ± 627 ng·h/mL
- AUC(0-t) ([2]; 50 mg): 1540 ± 473 ng·h/mL
- Cmax ([2]; 50 mg): 109 ± 24.9 ng/mL
- Tmax ([2]; 50 mg): 3.8 ± 1.05 h
- half-life ([2]; 50 mg): 13.3 ± 2.64 h
- CL/F ([2]; levosulpiride 50 mg alone): 35832 ± 8402 mL/h
- CL/F ([2]; levosulpiride 50 mg with omeprazole 40 mg): 30333 ± 6326 mL/h
- increase of AUC0-t [2, 6]: 14.52%
- increase of AUC0-∞ [2, 6]: 18.36%
- increase of Cmax [2, 6]: 8.79%
- reduction of CL [2, 6]: 15.34%
- % recovery (mean) ([3]; High QC (120 ng/ml), 15 °C for 12 hours (autosampler temperature)): 99.67%
- % recovery (mean) ([3]; High QC (120 ng/ml), -20 °C for 24 hours): 99.17%
- % recovery (mean) ([3]; High QC (120 ng/ml), -20°C for one month, three freezed cycles): 98.33%
- % recovery (mean) ([3]; High QC (120 ng/ml), RT for 24 hours): 98.00%
- % recovery (mean) ([3]; Low QC (10ng/ml), 15 °C for 12 hours (autosampler temperature)): 98.36%
- % recovery (mean) ([3]; Low QC (10ng/ml), -20 °C for 24 hours): 98.75%
- % recovery (mean) ([3]; Low QC (10ng/ml), -20°C for one month, three freezed cycles): 96.90%
- % recovery (mean) ([3]; Low QC (10ng/ml), RT for 24 hours): 96.80%
- elimination half-life ([4]; depending upon route of administration, dosage form and dose): 6 to 19 h
- elimination half-life ([4]; orally administered LSP 25 mg): 12.0 h
- elimination half-life ([4]; orally administered LSP 50 mg): 12.6 h
- elimination half-life ([4]; orally administered LSP 100 mg): 14.3 h

Compound: COc1ccc2[nH]c([S+]([O-])Cc3ncc(C)c(OC)c3C)nc2c1 (stereo not shown) [Omeprazole]
- AUC(0-inf) ([5]; human, plasma, oral): 6490 ± 1610 ng·h/mL
- AUC(0-t) ([5]; human, plasma, oral): 5950 ± 1430 ng·h/mL
- Tmax ([5]; human, plasma, oral): 1.85 ± 0.83 h
- half-life ([5]; human, plasma, oral): 2.23 ± 1.03 h
- CL/F ([5]; omeprazole 40 mg alone, healthy human volunteers (n = 20), mean ± SD): 7118.71 ± 2407.41 mL/h
- CL/F ([5]; omeprazole 40 mg with levosulpiride 50 mg, healthy human volunteers (n = 20), mean ± SD): 7100.69 ± 2001.55 mL/h
- AUC(0-t) ([5]; plasma, oral, omeprazole 40 mg alone, AUC0-12, healthy human volunteers (n = 20), mean ± SD): 6090 ± 1480 ng·h/mL
- AUC(0-inf) [5, 7]: 6650 ± 1650 ng·h/mL
- Tmax [5, 7]: 1.95 ± 0.99 h
- half-life [5, 7]: 2.3 ± 0.94 h
- Cmax ([5]; plasma, oral, omeprazole 40 mg single dose administered alone, healthy human volunteers (n = 20), mean ± SD): 1140 ± 262 ng/mL
- % recovery (mean) ([3]; High QC (1200 ng/ml), 15 °C for 12 hours (autosampler temperature)): 99.31%
- % recovery (mean) ([3]; High QC (1200 ng/ml), -20 °C for 24 hours): 99.48%
- % recovery (mean) ([3]; High QC (1200 ng/ml), -20°C for one month, three freezed cycles): 98.80%
- % recovery (mean) ([3]; High QC (1200 ng/ml), RT for 24 hours): 98.35%
- % recovery (mean) ([3]; Low QC (30 ng/ml), 15 °C for 12 hours (autosampler temperature)): 98.66%
- % recovery (mean) ([3]; Low QC (30 ng/ml), -20 °C for 24 hours): 99.33%
- % recovery (mean) ([3]; Low QC (30 ng/ml), -20°C for one month, three freezed cycles): 98.73%
- % recovery (mean) ([3]; Low QC (30 ng/ml), RT for 24 hours): 96.11%

Compound: COc1ccc2nc(S(=O)(=O)Cc3ncc(C)c(OC)c3C)[nH]c2c1 [omeprazole sulfone]
- pharmacological activity [1]: pharmacologically inactive
